Experimental data as given in ChEMBL document CHEMBL3885861, “Open TG-GATES”.

Species: Rattus norvegicus
Test: Open TG-GATES - Regimen: Single
Format: toxicity, organism-based, Sprague-Dawley
Parameters: regimen Single, gender Male, age 6 weeks
Conditions: in vivo, po, 30 mg/kg, route gavage, dose level Middle; for APTT / Bas / Eos / Fbg / Hb / Ht / Lym / MCH / MCHC / MCV / Mono / Neu / PT / Plat / RBC / Ret / WBC: tissue Blood; for KIDNEY_L / KIDNEY_R / KIDNEY_TOTAL: tissue Kidney; for LIVER: tissue Liver; for A/G / ALP / ALT / AST / BUN / CRE / Ca / Cl / DBIL / GLC / IP / K / LDH / Na / PL / RALB / TBIL / TC / TG / TP / gamma-GTP: tissue Plasma

OCCOCCN1CCN(C(c2ccccc2)c2ccc(Cl)cc2)CC1 (configuration not stated) [HYDROXYZINE]
TERMINAL_BW (3 h): 193.6 g
APTT (3 h): 15.6 s
Bas (3 h): 0.2%
Eos (3 h): 0.8%
Fbg (3 h): 288.4 mg/dL
Hb (3 h): 13 g/dL
Ht (3 h): 40.6%
Lym (3 h): 75.4%
MCH (3 h): 21.5 pg
MCHC (3 h): 31.9%
MCV (3 h): 67.3 fL
Mono (3 h): 3.4%
Neu (3 h): 19.6%
PT (3 h): 15.6 s
Plat (3 h): 107 x10_4/uL
RBC (3 h): 604.4 x10_4/ul
Ret (3 h): 8.9%
WBC (3 h): 83.3 x10_2/uL
KIDNEY_L (3 h): 0.9 g
KIDNEY_R (3 h): 0.9 g
KIDNEY_TOTAL (3 h): 1.8 g
LIVER (3 h): 8.7 g
A/G (3 h): 0.8
ALP (3 h): 1908.4 IU/L
ALT (3 h): 42.4 IU/L
AST (3 h): 74.8 IU/L
BUN (3 h): 9.2 mg/dL
CRE (3 h): 0.2 mg/dL
Ca (3 h): 10.9 mg/dL
Cl (3 h): 106.2 meq/L
DBIL (3 h): 0.012 mg/dL
GLC (3 h): 173.4 mg/dL
IP (3 h): 9.1 mg/dL
K (3 h): 4.4 meq/L
LDH (3 h): 76 IU/L
Na (3 h): 142 meq/L
PL (3 h): 140 mg/dL
RALB (3 h): 2.5 g/dL
TBIL (3 h): 0.058 mg/dL
TC (3 h): 78.6 mg/dL
TG (3 h): 33.2 mg/dL
TP (3 h): 5.4 g/dL
gamma-GTP (3 h): 1 IU/L
TERMINAL_BW (6 h): 192 g
APTT (6 h): 15.5 s
Bas (6 h): 0.2%
Eos (6 h): 0.6%
Fbg (6 h): 289.4 mg/dL
Hb (6 h): 12.9 g/dL
Ht (6 h): 39.9%
Lym (6 h): 78.8%
MCH (6 h): 21.4 pg
MCHC (6 h): 32.2%
MCV (6 h): 66.4 fL
Mono (6 h): 3%
Neu (6 h): 16.8%
PT (6 h): 15.1 s
Plat (6 h): 115.9 x10_4/uL
RBC (6 h): 601.6 x10_4/ul
Ret (6 h): 8.8%
WBC (6 h): 67.5 x10_2/uL
KIDNEY_L (6 h): 0.9 g
KIDNEY_R (6 h): 0.9 g
KIDNEY_TOTAL (6 h): 1.8 g
LIVER (6 h): 8.4 g
A/G (6 h): 0.9
ALP (6 h): 1397.6 IU/L
ALT (6 h): 38.8 IU/L
AST (6 h): 73.6 IU/L
BUN (6 h): 8.4 mg/dL
CRE (6 h): 0.2 mg/dL
Ca (6 h): 10.9 mg/dL
Cl (6 h): 105.8 meq/L
DBIL (6 h): 0.01 mg/dL
GLC (6 h): 180.4 mg/dL
IP (6 h): 10.5 mg/dL
K (6 h): 4.3 meq/L
LDH (6 h): 69.2 IU/L
Na (6 h): 142.6 meq/L
PL (6 h): 141.8 mg/dL
RALB (6 h): 2.5 g/dL
TBIL (6 h): 0.064 mg/dL
TC (6 h): 83.2 mg/dL
TG (6 h): 40.6 mg/dL
TP (6 h): 5.5 g/dL
gamma-GTP (6 h): 0.8 IU/L
TERMINAL_BW (9 h): 190.8 g
APTT (9 h): 15.9 s
Bas (9 h): 0%
Eos (9 h): 0.8%
Fbg (9 h): 281.8 mg/dL
Hb (9 h): 12.9 g/dL
Ht (9 h): 40%
Lym (9 h): 79%
MCH (9 h): 21.7 pg
MCHC (9 h): 32.3%
MCV (9 h): 67.1 fL
Mono (9 h): 2.6%
Neu (9 h): 17.2%
PT (9 h): 15.4 s
Plat (9 h): 104.8 x10_4/uL
RBC (9 h): 595.6 x10_4/ul
Ret (9 h): 8.8%
WBC (9 h): 60.3 x10_2/uL
KIDNEY_L (9 h): 0.9 g
KIDNEY_R (9 h): 0.9 g
KIDNEY_TOTAL (9 h): 1.7 g
LIVER (9 h): 8.2 g
A/G (9 h): 0.9
ALP (9 h): 1266.8 IU/L
ALT (9 h): 38 IU/L
AST (9 h): 70.2 IU/L
BUN (9 h): 9 mg/dL
CRE (9 h): 0.2 mg/dL
Ca (9 h): 10.7 mg/dL
Cl (9 h): 107 meq/L
DBIL (9 h): 0.01 mg/dL
GLC (9 h): 171.6 mg/dL
IP (9 h): 10.2 mg/dL
K (9 h): 4 meq/L
LDH (9 h): 83.6 IU/L
Na (9 h): 142.8 meq/L
PL (9 h): 127.8 mg/dL
RALB (9 h): 2.5 g/dL
TBIL (9 h): 0.06 mg/dL
TC (9 h): 67.6 mg/dL
TG (9 h): 43 mg/dL
TP (9 h): 5.4 g/dL
gamma-GTP (9 h): 1 IU/L
TERMINAL_BW (24 h): 210 g
APTT (24 h): 16.7 s
Bas (24 h): 0.2%
Eos (24 h): 0.8%
Fbg (24 h): 268 mg/dL
Hb (24 h): 12.7 g/dL
Ht (24 h): 39.4%
Lym (24 h): 74.6%
MCH (24 h): 21.3 pg
MCHC (24 h): 32.3%
MCV (24 h): 65.9 fL
Mono (24 h): 3.8%
Neu (24 h): 20.4%
PT (24 h): 16.1 s
Plat (24 h): 122 x10_4/uL
RBC (24 h): 599.2 x10_4/ul
Ret (24 h): 8%
WBC (24 h): 75.2 x10_2/uL
KIDNEY_L (24 h): 0.9 g
KIDNEY_R (24 h): 0.9 g
KIDNEY_TOTAL (24 h): 1.8 g
LIVER (24 h): 10.1 g
A/G (24 h): 0.8
ALP (24 h): 1659 IU/L
ALT (24 h): 45.8 IU/L
AST (24 h): 68.6 IU/L
BUN (24 h): 14 mg/dL
CRE (24 h): 0.2 mg/dL
Ca (24 h): 11.2 mg/dL
Cl (24 h): 106.6 meq/L
DBIL (24 h): 0.018 mg/dL
GLC (24 h): 188.2 mg/dL
IP (24 h): 7.9 mg/dL
K (24 h): 4.1 meq/L
LDH (24 h): 75.2 IU/L
Na (24 h): 142.8 meq/L
PL (24 h): 153.4 mg/dL
RALB (24 h): 2.6 g/dL
TBIL (24 h): 0.054 mg/dL
TC (24 h): 79.2 mg/dL
TG (24 h): 82 mg/dL
TP (24 h): 5.6 g/dL
gamma-GTP (24 h): 1 IU/L
